# Experimental data: patent US11708348B2, “Protease inhibitors for treatment of coronavirus infections” (The Scripps Research Institute, priority 2021, dated 2023)
# Where two headings read alike, the source gives them in different places.
# Tested on: SARS-CoV-2 strain USA-WA1/2020
# Test: microbe, parasite or virus in culture
# Type: cell-based
# Conditions: Severe acute respiratory syndrome coronavirus 2, HeLa-ACE2, 24 h, HeLa-ACE2 cells, SARS-CoV-2 infection, 24 h, read-out: EC50, uM (Hela)
SMILES,EC50 [µM],EC50 (class symbols) [µM],other results
"CC(C)C[C@H](NC(=O)C(=O)Nc1ccccc1F)C(=O)N[C@@H](CCS(C)(=O)=O)C(=O)COc1c(F)c(F)cc(F)c1F [Compound 655, N1-(2-fluorophenyl)-N2-((S)-4-methyl-1-(((S)-5-(methylsulfonyl)-2-oxo-1-(2,3,5,6-tetrafluorophenoxy)pentan-3-yl)amino)-1-oxopentan-2-yl)oxalamide]",0.5 to 1,–,–
"CC(C)C[C@H](NC(=O)c1cn2ncccc2n1)C(=O)N[C@@H](C[C@@H]1CCNC1=O)C(=O)COC(F)(F)F [Compound 203, N-((S)-4-methyl-1-oxo-1-(((S)-3-oxo-1-((S)-2-oxopyrrolidin-3-yl)-4-(trifluoromethoxy)butan-2-yl)amino)pentan-2-yl)imidazo[1,2-b]pyridazine-2-carboxamide]",–,0.05 to 0.2,–
"O=C(Nc1ccccc1F)C(=O)N1CC[C@H]1C(=O)N[C@@H](C[C@@H]1CCNC1=O)C(=O)COC(F)(F)F [Compound 583, (S)-1-(2-((2-fluoro-phenyl)amino)-2-oxoacetyl)-N-((S)-3-oxo-1-((S)-2-oxopyrrolidin-3-yl)-4-(trifluoromethoxy)butan-2-yl)azetidine-2-carboxamide]",0.05 to 0.2,–,–
"CC(F)(F)CNC(=O)C(=O)N1C[C@H]2[C@@H]([C@H]1C(=O)N[C@@H](C[C@@H]1CCNC1=O)C(=O)COC(F)(F)F)C2(C)C [Compound 484, (1R,2S,5S)-3-(2-((2,2-difluoropropyl)amino)-2-oxoacetyl)-6,6-dimethyl-N-((S)-3-oxo-1-((S)-2-oxopyrrolidin-3-yl)-4-(trifluoromethoxy)butan-2-yl)-3-azabicyclo[3.1.0]-hexane-2-carboxamide]",0.05 to 0.2,–,–
"CC(C)(C)NC(=O)C(=O)N1C[C@@]2(C[C@H]1C(=O)N[C@@H](C[C@@H]1CCNC1=O)C(=O)COC(F)(F)F)CC2(F)F [Compound 518, (3R,6S)-5-(2-(tert-butylamino)-2-oxoacetyl)-1,1-difluoro-N-((S)-3-oxo-1-((S)-2-oxopyrrolidin-3-yl)-4-(trifluoromethoxy)butan-2-yl)-5-azaspiro[2.4]-heptane-6-carboxamide]",0.05 to 0.2,–,–
"CC(C)C[C@H](NC(=O)C(=O)NC(C)(C)C(F)(F)F)C(=O)N[C@@H](C[C@@H]1CCNC1=O)C(=O)COC(F)(F)F [Compound 211, N1-((S)-4-methyl-1-oxo-1-(((S)-3-oxo-1-((S)-2-oxopyrrolidin-3-yl)-4-(trifluoromethoxy)butan-2-yl)amino)pentan-2-yl)-N2-(1,1,1-trifluoro-2-methylpropan-2-yl)oxalamide]",–,< 0.05,–
"CC[C@@H](C)[C@@H](O)C(=O)N1CC2(CC2)C[C@H]1C(=O)N[C@@H](C[C@@H]1CCNC1=O)C(=O)COC(F)(F)F [Compound 380, (S)-5-((2R,3R)-2-hydroxy-3-methylpentanoyl)-N-((S)-3-oxo-1-((S)-2-oxopyrrolidin-3-yl)-4-(trifluoromethoxy)butan-2-yl)-5-azaspiro[2.4]-heptane-6-carboxamide]",–,0.05 to 0.2,–
"CC(C)(C)c1cccc(C(=O)N2CC3(CC3)C[C@H]2C(=O)N[C@@H](C[C@@H]2CCNC2=O)C(=O)COC(F)(F)F)c1 [Compound 458, (S)-5-(3-(tert-butyl)benzoyl)-N-((S)-3-oxo-1-((S)-2-oxopyrrolidin-3-yl)-4-(trifluoromethoxy)butan-2-yl)-5-azaspiro[2.4]heptane-6-carboxamide]",< 0.05,–,–
"[2H]C([2H])([2H])C(C(=O)N1CC2(CC2)C[C@H]1C(=O)N[C@@H](C[C@@H]1CCNC1=O)C(=O)COC(F)(F)F)C([2H])([2H])[2H] [Compound 739, (S)-5-(2-(methyl-d3)propanoyl-3,3,3-d3)-N-((S)-3-oxo-1-((S)-2-oxopyrrolidin-3-yl)-4-(trifluoromethoxy)butan-2-yl)-5-azaspiro[2.4]heptane-6-carboxamide]",0.05 to 0.2,–,–
"O=C(N[C@@H](C[C@@H]1CCNC1=O)C(=O)COC(F)(F)F)C(CC1CCOCC1)NC(=O)[C@H]1CCCO1 (stereo partly drawn) [Compound 298, (2R)-N-(1-oxo-1-(((S)-3-oxo-1-((S)-2-oxopyrrolidin-3-yl)-4-(trifluoromethoxy)butan-2-yl)amino)-3-(tetrahydro-2H-pyran-4-yl)propan-2-yl)tetrahydrofuran-2-carboxamide]",–,0.5 to 1,–
"CCC[C@@H](O)C(=O)N1CC2(CC2)C[C@H]1C(=O)N[C@@H](C[C@@H]1CCNC1=O)C(=O)COC(F)(F)F [Compound 766, (S)-5-((R)-2-hydroxypentanoyl)-N-((S)-3-oxo-1-((S)-2-oxopyrrolidin-3-yl)-4-(trifluoromethoxy)butan-2-yl)-5-azaspiro[2.4]heptane-6-carboxamide]",0.05 to 0.2,–,–
"CC(C)C[C@H](NC(=O)C(=O)Nc1ccccc1C(C)(C)C)C(=O)N[C@@H](C[C@@H]1CCNC1=O)C(=O)COc1c(F)c(F)cc(F)c1F [Compound 33, N1-(2-(tert-butyl)phenyl)-N2-((S)-4-methyl-1-oxo-1-(((S)-3-oxo-1-((S)-2-oxopyrrolidin-3-yl)-4-(2,3,5,6-tetrafluorophenoxy)butan-2-yl)amino)pentan-2-yl)oxalamide]",–,< 0.05,–
"O=C(N[C@@H](CC1CC1)C(=O)N[C@@H](C[C@@H]1CCNC1=O)C(=O)COC(F)(F)F)c1cc2cc(F)ccc2[nH]1 [Compound 161, N-((S)-3-cyclopropyl-1-oxo-1-(((S)-3-oxo-1-((S)-2-oxopyrrolidin-3-yl)-4-(trifluoromethoxy)butan-2-yl)amino)propan-2-yl)-5-fluoro-1H-indole-2-carboxamide]",–,< 0.05,–
"COCC1(NC(=O)C(=O)N[C@@H](CC(C)C)C(=O)N[C@@H](C[C@@H]2CCNC2=O)C(=O)COC(F)(F)F)CC1 [Compound 262, Nl-(1-(methoxymethyl)-cyclopropyl)-N2-((S)-4-methyl-1-oxo-1-(((S)-3-oxo-1-((S)-2-oxopyrrolidin-3-yl)-4-(trifluoromethoxy)butan-2-yl)amino)pentan-2-yl)oxalamide]",–,0.05 to 0.2,–
"CC1(C)[C@@H]2[C@@H](C(=O)N[C@@H](C[C@@H]3CCNC3=O)C(=O)COC(F)(F)F)N(C(=O)[C@@H](O)c3ccccc3F)C[C@@H]21 [Compound 411, (1R,2S,5S)-3-((S)-2-(2-fluorophenyl)-2-hydroxyacetyl)-6,6-dimethyl-N-((S)-3-oxo-1-((S)-2-oxopyrrolidin-3-yl)-4-(trifluoromethoxy)butan-2-yl)-3-azabicyclo-[3.1.0]hexane-2-carboxamide]",< 0.05,–,–
"CC[C@@H](OC)C(=O)N1C[C@H]2[C@@H]([C@H]1C(=O)N[C@@H](C[C@@H]1CCNC1=O)C(=O)COC(F)(F)F)C2(C)C [Compound 336, (1R,2S,5S)-3-((R)-2-methoxybutanoyl)-6,6-dimethyl-N—((S)-3-oxo-1-((S)-2-oxopyrrolidin-3-yl)-4-(trifluoromethoxy)butan-2-yl)-3-azabicyclo[3.1.0]hexane-2-carboxamide]",–,0.05 to 0.2,–
"CC(C)C[C@H](NC(=O)O[C@@H]1CCOC1)C(=O)N[C@@H](C[C@@H]1CCNC1=O)C(=O)COc1c(F)c(F)cc(F)c1F [Compound 126, (R)-tetrahydrofuran-3-yl ((S)-4-methyl-1-oxo-1-(((S)-3-oxo-1-((S)-2-oxopyrrolidin-3-yl)-4-(2,3,5,6-tetrafluorophenoxy)butan-2-yl)amino)pentan-2-yl)carbamate]",–,–,EC50 (cells given as a bound): > 1 µM
"O=C1NCC[C@H]1C[C@H](NC(=O)[C@@H]1[C@H]2CCC[C@H]2CN1C(=O)[C@H](O)c1ccccc1F)C(=O)COC(F)(F)F [Compound 409, (1S,3aR,6aS)-2-((R)-2-(2-fluorophenyl)-2-hydroxyacetyl)-N-((S)-3-oxo-1-((S)-2-oxopyrrolidin-3-yl)-4-(trifluoromethoxy)butan-2-yl)octahydrocyclo-penta[c]pyrrole-1-carboxamide]",< 0.05,–,–
"CC(C)C[C@H](NC(=O)c1cn2ccccc2n1)C(=O)N[C@@H](C[C@@H]1CCNC1=O)C(=O)COC(F)(F)F [Compound 202, N-((S)-4-methyl-1-oxo-1-(((S)-3-oxo-1-((S)-2-oxopyrrolidin-3-yl)-4-(trifluoromethoxy)butan-2-yl)amino)pentan-2-yl)imidazo[1,2-a]pyridine-2-carboxamide]",–,0.05 to 0.2,–
"CS(=O)(=O)NC/C=C/C[C@@H](O)C(=O)N1CC2(CC2)C[C@H]1C(=O)N[C@@H](C[C@@H]1CCNC1=O)C(=O)COC(F)(F)F [Compound 675, (S)-5-((R,E)-2-hydroxy-6-(methylsulfonamido)hex-4-enoyl)-N-((S)-3-oxo-1-((S)-2-oxopyrrolidin-3-yl)-4-(trifluoromethoxy)butan-2-yl)-5-azaspiro[2.4]heptane-6-carboxamide]",0.2 to 0.5,–,–
CC(C)C[C@H](NC(=O)C(=O)Nc1ccccc1C(F)(F)F)C(=O)N[C@@H](C[C@@H]1CCNC1=O)C(=O)COc1c(F)c(F)cc(F)c1F [Compound 32],–,< 0.05,–
"CC(C)(C)NC(=O)C(=O)N1[C@H](C(=O)N[C@@H](C[C@@H]2CCNC2=O)C(=O)COC(F)(F)F)C[C@@H]2CCCC[C@@H]21 [Compound 498, (2S,3aS,7aS)-1-(2-(tert-butylamino)-2-oxoacetyl)-N-((S)-3-oxo-1-((S)-2-oxopyrrolidin-3-yl)-4-(trifluoromethoxy)butan-2-yl)octahydro-1H-indole-2-carboxamide]",0.05 to 0.2,–,–
"CC(C)C[C@H](NC(=O)C(=O)N[C@H]1CCCc2ccccc21)C(=O)N[C@@H](C[C@@H]1CCNC1=O)C(=O)COc1c(F)c(F)cc(F)c1F [Compound 145, N^1—((S)-4-methyl-1-oxo-1-(((S)-3-oxo-1-((S)-2-oxopyrrolidin-3-yl)-4-(2,3,5,6-tetrafluorophenoxy)butan-2-yl)amino)pentan-2-yl)-N^2—((S)-1,2,3,4-tetrahydronaphthalen-1-yl)oxalamide]",–,0.2 to 0.5,–
"O=C1NCC[C@H]1C[C@H](NC(=O)[C@@H]1CC2(CC2)CN1C(=O)C(F)(F)c1ccccc1)C(=O)COC(F)(F)F [Compound 616, (S)-5-(2,2-difluoro-2-phenylacetyl)-N-((S)-3-oxo-1-((S)-2-oxopyrrolidin-3-yl)-4-(trifluoromethoxy)butan-2-yl)-5-azaspiro[2.4]heptane-6-carboxamide]",< 0.05,–,–
